The text below walks through data of patent publication US6960611B2, “Sulfonyl-containing 2,3-diarylindole compounds, methods for making same, and methods of use thereof” (Institute of Materia Medica, priority 2002, dated 2005).

Data set [1] relates to carrageenan-induced foot pad edema. As to the kind of experiment: Rat carrageenan-induced foot pad edema assay. The settings on record: 10 mg/kg oral. The data set is classed as in vivo. How it is done: Male Sprgue-Dawley rats (190-220 g ) were fasted with free access to water at least 16 h prior experiments. The rats were dosed orally with a 1 ml suspension of test compound in vehicle (0.5% methyl cellulose and 0.025% Tween-20) or with vehicle alone. One hour later a subplantar injection of 0.1 ml of 1% solution of carageenan in 0.9% strile saline was administered to the right hind foot pad. Paw volume was measured with a displacement plethysmometer 2, 3, and 4 h after carrageenan injection.

The target in another data set is T1, COX-2 (Mus musculus, UniProt Q05769).
T1 construct: endogenous in cells; host or cells: thioglycollate-elicited peritoneal macrophages of male C57BL-6J mice, stimulated with LPS
T1 sequence (Q05769 18-604): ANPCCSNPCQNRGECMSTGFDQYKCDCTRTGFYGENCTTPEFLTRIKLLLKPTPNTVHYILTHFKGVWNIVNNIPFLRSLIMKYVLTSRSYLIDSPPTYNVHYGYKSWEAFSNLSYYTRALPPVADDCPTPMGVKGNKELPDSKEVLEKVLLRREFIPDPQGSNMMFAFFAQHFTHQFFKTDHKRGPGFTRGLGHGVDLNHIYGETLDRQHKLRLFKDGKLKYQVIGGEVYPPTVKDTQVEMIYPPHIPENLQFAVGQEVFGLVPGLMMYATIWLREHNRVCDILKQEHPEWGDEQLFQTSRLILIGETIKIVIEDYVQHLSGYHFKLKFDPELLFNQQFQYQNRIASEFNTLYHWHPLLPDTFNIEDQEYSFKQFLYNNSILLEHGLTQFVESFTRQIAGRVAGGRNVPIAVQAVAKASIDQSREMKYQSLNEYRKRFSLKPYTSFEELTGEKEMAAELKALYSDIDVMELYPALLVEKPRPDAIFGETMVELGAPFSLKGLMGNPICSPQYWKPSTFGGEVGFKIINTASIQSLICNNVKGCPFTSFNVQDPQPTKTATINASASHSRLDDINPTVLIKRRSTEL
Put plainly: COX-2 assay: PGE2 release (RIA) from LPS-stimulated mouse peritoneal macrophages. The data set is classed as cell-based, mice. To be noted: LPS 1 mg/L 9 h, PGE2 by RIA. How it is done:
Cell culture: Adherent macrophages were harvested from the peritoneal cells of male mice (C57BL-6J, Level 2, from Experiment Animal Center, Academy of Military Medical Science) 3 d after the injection (ip) of brewer thioglycollate medium (5 mL/100 g body weight). […] Cell viability was examined by trypan blue dye exclusion. All incubation procedures were performed with 5% CO2 in humidified air at 37° C.
COX-2 assay: Macrophages were incubated with test compound at different concentrations or solvent (Me2SO) for 1 h and were stimulated with LPS 1 mg/L for 9 h. The amount of PGE2 in supernatants was measured by RIA. The inhibitory ratio was calculated using the same Formula as in COX-1 assay section. Cs, Ct, Cc refer to PGE2 concentration in supernatants of LPS, test compound, and control groups, respectively.
Statistical analysis: Data were expressed as the mean±SD of more than three independent experiments. Dose-inhibitory effect curves were fit through “uphill dose response curves, variable slope” using Prism, GraphPad (version 3.00): [formula]

By IC50 is commonly meant the midpoint of a concentration-inhibition curve. As a reminder, the melting point is the temperature of the solid-liquid transition.

In the case of “2-(4-methylsulfonylphenyl)-3-phenyl-5-methylindole [Example 83]”, the “inhibitory percentage of edema” value is reported as 46.1% in data set [1] (2 h after carrageenan), 47.1% in data set [1] (3 h after carrageenan) and 46.1% in data set [1] (4 h after carrageenan). The IC50 against COX-2 stood at 0.278 nM.
Consider `Cc1ccc(-c2cc(C(F)(F)F)nn2-c2ccc(S(N)(=O)=O)cc2)cc1` [Celecoxib, reference compound], for which the edema (paw volume increase) in data set [1] (2 h after carrageenan) stood at 31.1 ± 7.87%; in data set [1] (3 h after carrageenan) it was 53.2 ± 12.6%; in data set [1] (4 h after carrageenan), 48.8 ± 8.11%. The “inhibitory percentage of edema” value came to 51.6% in data set [1] (3 h after carrageenan) and 48.0% in data set [1] (4 h after carrageenan).
For `CS(=O)(=O)c1ccc(-c2[nH]c3ccccc3c2-c2ccccc2)cc1` [Example 59, 2-(4-methylsulfonylphenyl)-3-phenylindole], the melting point lay within 221 to 222 °C. In data set [1] (2 h after carrageenan), the edema (paw volume increase) came out at 40.8 ± 15.8%. In data set [1] (3 h after carrageenan), the edema (paw volume increase) was 48.6 ± 14% and the “inhibitory percentage of edema” value is on record as 55.8%. Further, in data set [1] (4 h after carrageenan), the edema (paw volume increase) was 41.2 ± 17.4% and the “inhibitory percentage of edema” value turned out to be 56.1%. This compound also gave an IC50 at COX-2 of 3.86 nM.
As to `NS(=O)(=O)c1ccc(-c2[nH]c3ccccc3c2-c2ccccc2)cc1` [Example 60, 2-(4-aminosulfonylphenyl)-3-phenylindole], the melting point fell in the range of 231 to 232 °C. Besides, in data set [1] (2 h after carrageenan), the edema (paw volume increase) was found to be 32.5 ± 9.45%. In addition, in data set [1] (3 h after carrageenan), the edema (paw volume increase) came to 56.9 ± 16.4% and the “inhibitory percentage of edema” value is on record as 48.3%. Also, in data set [1] (4 h after carrageenan), the edema (paw volume increase) came out at 43.2 ± 13.9% and the “inhibitory percentage of edema” value amounted to 53.9%. The compound also yielded an IC50 on COX-2 of 0.161 nM.
Regarding `Cc1ccc(-c2c(-c3ccc(S(N)(=O)=O)cc3)[nH]c3ccccc23)cc1` [Example 66, 2-(4-aminosulfonylphenyl)-3-(4-methylphenyl)indole], the melting point was in the range of 293 to 295 °C. Also, on COX-2, the IC50 is 0.0684 nM.
In the same order, the values of `Cc1ccc(-c2c(-c3ccc(S(N)(=O)=O)cc3)[nH]c3ccccc23)cc1C` [Example 68, 2-(4-aminosulfonylphenyl)-3-(3,4-dimethylphenyl)indole] are 251 to 253 °C and 1.46 nM.
For `COc1ccc(-c2c(-c3ccc(S(N)(=O)=O)cc3)[nH]c3ccccc23)cc1` [Example 70, 2-(4-aminosulfonylphenyl)-3-(4-methoxyphenyl)indole], the edema (paw volume increase) in data set [1] (2 h after carrageenan) was determined as 21.9 ± 11.8%; in data set [1] (3 h after carrageenan) it was 34.6 ± 10.4%; in data set [1] (4 h after carrageenan), 31.9 ± 11.9%. The “inhibitory percentage of edema” value in data set [1] (3 h after carrageenan) is 44.7%; in data set [1] (4 h after carrageenan), 38.5%.
The compound `CS(=O)(=O)c1ccc(-c2[nH]c3ccccc3c2-c2ccc(F)cc2)cc1` [Example 71, 2-(4-methylsulfonylphenyl)-3-(4-fluorophenyl)indole] registered a melting point of 224 to 226 °C. The edema (paw volume increase) in data set [1] (2 h after carrageenan) turned out to be 44 ± 21.1%. Besides, in data set [1] (3 h after carrageenan), the edema (paw volume increase) was determined as 54.4 ± 9.8% and the “inhibitory percentage of edema” value was found to be 11.1%. In data set [1] (4 h after carrageenan), the edema (paw volume increase) was 49.1 ± 19% and the “inhibitory percentage of edema” value worked out at 18.4%.
With `CS(=O)(=O)c1ccc(-c2[nH]c3ccc(Cl)cc3c2-c2ccc(Cl)cc2)cc1` [Example 73, 2-(4-methylsulfonylphenyl)-3-(4-chlorophenyl)-5-chloroindole], the melting point lay in the range of 281 to 283 °C. On COX-2, half-maximal inhibition (IC50) required 85.1 nM.
The corresponding values for `NS(=O)(=O)c1ccc(-c2[nH]c3ccc(Cl)cc3c2-c2ccc(Cl)cc2)cc1` [Example 74, 2-(4-aminosulfonylphenyl)-3-(4-chlorophenyl)-5-chloroindole] are 245 to 247 °C and 0.541 nM.
In turn, `CS(=O)(=O)c1ccc(-c2[nH]c3ccc(Cl)cc3c2-c2ccccc2)cc1` [Example 76, 2-(4-methylsulfonylphenyl)-3-phenyl-5-chloroindole] returned a melting point of 281 to 283 °C. In data set [1] (2 h after carrageenan), the edema (paw volume increase) was 45 ± 17.9% and the “inhibitory percentage of edema” value is reported as 36.9%. In data set [1] (3 h after carrageenan), the edema (paw volume increase) was determined as 46 ± 15.4% and the “inhibitory percentage of edema” value worked out at 52.8%. Also, in data set [1] (4 h after carrageenan), the edema (paw volume increase) was determined as 37.7 ± 15.6% and the “inhibitory percentage of edema” value was 53.2%.
Compound `NS(=O)(=O)c1ccc(-c2[nH]c3ccc(Cl)cc3c2-c2ccccc2Cl)cc1` [Example 77, 2-(4-aminosulfonylphenyl)-3-(2-chlorophenyl) -5-chloro indole] showed an IC50 against COX-2 of 100 nM. This counts as sub-micromolar.
The compound `CS(=O)(=O)c1ccc(-c2[nH]c3ccc(Cl)cc3c2-c2ccccc2Cl)cc1` [Example 78, 2-(4-methylsulfonylphenyl)-3-(2-chlorophenyl) -5-chloro indole] came in with a melting point of 300 to 301.5 °C. The same compound gave an IC50 against COX-2 of 10 nM.
The corresponding values for `NS(=O)(=O)c1ccc(-c2[nH]c3ccc(Br)cc3c2-c2ccccc2)cc1` [Example 81, 2-(4-aminosulfonylphenyl)-3-phenyl-5-bromoindole] are 310 to 312 °C and 5 nM.
In the same order, the values of `CS(=O)(=O)c1ccc(-c2[nH]c3ccc(Br)cc3c2-c2ccccc2)cc1` [Example 82, 2-(4-methylsulfonylphenyl)-3-phenyl-5-bromoindole] are 262 to 264 °C and 1.41 nM.
On to `NS(=O)(=O)c1ccc(-c2[nH]c3ccc(Cl)cc3c2-c2cccc(Cl)c2)cc1` [Example 85, 2-(4-aminosulfonylphenyl)-3-(3-chlorophenyl)-5-chloroindole], for which the edema (paw volume increase) in data set [1] (2 h after carrageenan) came out at 57.2 ± 13.6%; in data set [1] (3 h after carrageenan), 62.3 ± 7.2%; in data set [1] (4 h after carrageenan) it was 61.7 ± 8.8%. Also, the figures for the “inhibitory percentage of edema” value in data set [1] (2 h after carrageenan), in data set [1] (3 h after carrageenan) and in data set [1] (4 h after carrageenan) were 19.8%, 36.1% and 23.4%, respectively.
In turn, `CS(=O)(=O)c1ccc(-c2[nH]c3ccc(Cl)cc3c2-c2cccc(Cl)c2)cc1` [Example 86, 2-(4-methylsulfonylphenyl)-3-(3-chlorophenyl)-5-chloroindole] gave a melting point of 254 to 257 °C. Half-maximal inhibition against COX-2 (IC50) was put at 0.801 nM.
With `CS(=O)(=O)c1ccc(-c2[nH]c3ccc(Cl)cc3c2-c2ccc(S(C)(=O)=O)cc2)cc1` [Example 88, 2-(4-methylsulfonylphenyl)-3-(4-methylsulfonylphenyl)-5-chloroindole], the melting point was in the range of 173 to 175 °C. The IC50 against COX-2 worked out at 1.48 nM.
In the same order, the values of `Cc1ccc(-c2[nH]c3ccc(Cl)cc3c2-c2ccc(S(C)(=O)=O)cc2)cc1` [Example 91, 2-(4-methylphenyl)-3-(4-methylsulfonylphenyl)-5-chloroindole] are 238 to 240 °C and 1.68 nM.
The compound `CS(=O)(=O)c1ccc(-c2c(-c3ccc(O)cc3)[nH]c3ccc(Cl)cc23)cc1` [Example 95, 2-(4-hydroxyphenyl)-3-(4-methylsulfonylphenyl)-5-chloroindole] gave a melting point of 271 to 273 °C.
The compound `NS(=O)(=O)c1ccc(-c2[nH]c3ccccc3c2-c2ccc(O)cc2)cc1` [Example 96, 2-(4-aminosulfonylphenyl)-3-(4-hydroxyphenyl)indole] displayed a melting point of 241 to 243 °C. For the same compound, the 50% inhibitory concentration (IC50) against COX-2 was found to be 6.44 nM.
In the same order, the values of `CC(=O)NS(=O)(=O)c1ccc(-c2[nH]c3ccccc3c2-c2ccccc2)cc1` [Example 97, 2-(N-acetamide-sulfonylphenyl)-3-phenylindole] are 221 to 222 °C and 0.184 nM.
On to `CS(=O)(=O)c1ccc(C2=C(c3ccccc3)C(=O)OC2)cc1` [Rofecoxib, reference compound], for which the results for the edema (paw volume increase) in data set [1] (2 h after carrageenan), in data set [1] (3 h after carrageenan) and in data set [1] (4 h after carrageenan) were 50.3 ± 5.1%, 47.2 ± 2.4% and 38.2 ± 6.7%, respectively. The “inhibitory percentage of edema” value came to 29.5% in data set [1] (2 h after carrageenan), 51.6% in data set [1] (3 h after carrageenan) and 52.6% in data set [1] (4 h after carrageenan).
